Test results from ChEMBL document CHEMBL1126901, “2-Thio derivatives of dUrd and 5-fluoro-dUrd and their 5'-monophosphates: synthesis, interaction with tumor thymidylate synthase, and in vitro antitumor activity” (J Med Chem, 1993).
pIC50, pKi: −log10 of the molar value.

Experiments:
L5178Y [1] = assay: Inhibitory concentration of compound rwas calculated on L5178Y cells by [3H]Thd incorporation; type: functional, cell-based, Mus musculus
NIH3T3 [2] = assay: Inhibitory concentration was calculated on 3T3 cells by using growth assay; type: functional, cell-based, Mus musculus
L5178Y [3] = assay: Inhibitory concentration of compound was calculated on L5178Y cells by [14C]Leu incorporation; type: functional, cell-based, Mus musculus
L5178Y [4] = assay: Inhibitory concentration of compound was calculated on L5178Y cells by using clonal assay; type: functional, cell-based, Mus musculus
NIH3T3 [5] = assay: Inhibitory concentration of compound rwas calculated on 3T3 cells by [3H]Thd incorporation; type: functional, cell-based, Mus musculus
NIH3T3 [6] = assay: Inhibitory concentration of compound was calculated on 3T3 cells by [14C]Leu incorporation; type: functional, cell-based, Mus musculus
NIH3T3 [7] = assay: Inhibitory concentration of compound was calculated on 3T3 cells by using clonal assay; type: functional, cell-based, Mus musculus
L5178Y [8] = assay: Inhibitory concentration of compound was calculated on L5178Y cells by using growth assay; type: functional, cell-based, Mus musculus
[9] = target: Thymidylate synthase (Mus musculus) (UniProt P07607)
Description: The time dependent reaction (k2''(1/min)) of compound was measured for inactivation of Ehrlich Carcinoma Thymidylate Synthases

Thymidylate synthase [10] = target: T1, Thymidylate synthase (Mus musculus, UniProt P07607); assay: Apparent Ki value was measured by competitive inhibition of Thymidylate Synthase from L1210 cells of mouse; type: cell-based
[11] = target: Thymidylate synthase (Mus musculus) (UniProt P07607); remark: listed apart in the source
Description: The reaction rate(Ki') of compound was measured for inactivation of Ehrlich Carcinoma Thymidylate Synthases

[12] = target: Thymidylate synthase (Mus musculus) (UniProt P07607); remark: listed apart in the source
Description: The reaction rate(Ki') of compound was measured for inactivation of L1210 Thymidylate Synthase

Thymidylate synthase [13] = target: T1, Thymidylate synthase; assay: Apparent Ki value was measured by competitive inhibition of Thymidylate Synthase from Ehrlich Carcinoma cells of mouse; type: cell-based
[14] = target: Thymidylate synthase (Mus musculus) (UniProt P07607); remark: listed apart in the source
Description: The reaction rate(Ki'') of compound was measured for inactivation of Ehrlich Carcinoma Thymidylate Synthases

[15] = target: Thymidylate synthase (Mus musculus) (UniProt P07607); remark: listed apart in the source
Description: The time dependent reaction (k2''(1/min)) of compound was measured for inactivation of Ehrlich Carcinoma Thymidylate Synthase

[16] = target: Thymidylate synthase (Mus musculus) (UniProt P07607); remark: listed apart in the source
Description: The time dependent reaction (k2''(1/min)) of compound was measured for inactivation of L1210 Thymidylate Synthase

[17] = target: Thymidylate synthase (Mus musculus) (UniProt P07607); remark: listed apart in the source
Description: The time dependent reaction (k2'(1/min)) of compound was measured for inactivation of L1210 Thymidylate Synthase

[18] = target: Thymidylate synthase (Mus musculus) (UniProt P07607); remark: listed apart in the source
Description: The reaction rate(Ki'') of compound was measured for inactivation of L1210 Thymidylate Synthase

[19] = target: Thymidylate synthase (Mus musculus) (UniProt P07607); remark: listed apart in the source
Description: The reaction rate(Ki') of compound was measured for inactivation of L1210 Thymidylate Synthases

[20] = target: Thymidylate synthase (Mus musculus) (UniProt P07607); remark: listed apart in the source
Description: The time dependent reaction (k2''(1/min)) of compound was measured for inactivation of L1210 Thymidylate Synthases

[21] = target: Thymidylate synthase (Mus musculus) (UniProt P07607); remark: listed apart in the source
Description: The time dependent reaction (k2'(1/min)) of compound was measured for inactivation of L1210 Thymidylate Synthases

[22] = target: Thymidylate synthase (Mus musculus) (UniProt P07607); remark: listed apart in the source
Description: The reaction rate(Ki'') of compound was measured for inactivation of L1210 Thymidylate Synthases

[23] = target: Thymidylate synthase (Mus musculus) (UniProt P07607); remark: listed apart in the source
Description: The time dependent reaction (k2'(1/min)) of compound was measured for inactivation of Ehrlich Carcinoma Thymidylate Synthases

Thymidylate synthase (Mus musculus), sequence (P07607 whole entry, looked up): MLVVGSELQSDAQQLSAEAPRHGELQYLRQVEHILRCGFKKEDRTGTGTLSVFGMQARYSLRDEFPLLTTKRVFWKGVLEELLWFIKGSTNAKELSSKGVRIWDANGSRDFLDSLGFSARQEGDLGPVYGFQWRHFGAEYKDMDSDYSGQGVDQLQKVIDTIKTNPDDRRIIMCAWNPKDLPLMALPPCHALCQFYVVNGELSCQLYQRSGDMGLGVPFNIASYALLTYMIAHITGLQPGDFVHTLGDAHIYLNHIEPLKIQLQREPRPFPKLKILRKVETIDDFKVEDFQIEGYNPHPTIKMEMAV
T1 sequence (P07607 whole entry): as the sequence (P07607 whole entry, looked up) above

Structure (SMILES): O=c1[nH]c(=O)n([C@H]2C[C@H](O)[C@@H](CO)O2)cc1F (stereo in doubt) [FLOXURIDINE]
- pIC50 (L5178Y [1]; l5178y): 7.82
- pIC50 (NIH3T3 [2]; nih3t3): 6.00
- pIC50 (L5178Y [3]; l5178y): 8.05
- pIC50 (L5178Y [4]; l5178y): 7.70
- pIC50 (NIH3T3 [5]; nih3t3): 6.30
- pIC50 (NIH3T3 [6]; nih3t3): 5.49
- pIC50 (NIH3T3 [7]; nih3t3): 6.22
- pIC50 (L5178Y [8]; l5178y): 7.60

Structure (SMILES): O=c1[nH]c(=S)n([C@H]2C[C@H](O)[C@@H](CO)O2)cc1F
- pIC50 (L5178Y [1]; Mus musculus, L5178Y): 5.85
- pIC50 (NIH3T3 [2]; Mus musculus, NIH3T3): 5.40
- pIC50 (L5178Y [3]; Mus musculus, L5178Y): 6.00
- pIC50 (L5178Y [4]; Mus musculus, L5178Y): 5.35
- pIC50 (NIH3T3 [5]; Mus musculus, NIH3T3): 5.40
- pIC50 (NIH3T3 [6]; Mus musculus, NIH3T3): 5.30
- pIC50 (NIH3T3 [7]; Mus musculus, NIH3T3): 5.15
- pIC50 (L5178Y [8]; Mus musculus, L5178Y): 5.70

Structure (SMILES): O=c1[nH]c(=S)n([C@@H]2C[C@H](O)[C@@H](CO)O2)cc1F
- pIC50 (L5178Y [1]; Mus musculus, L5178Y): 5.00
- pIC50 (NIH3T3 [2]; Mus musculus, NIH3T3): 3.40
- pIC50 (L5178Y [3]; Mus musculus, L5178Y): 5.00
- pIC50 (L5178Y [4]; Mus musculus, L5178Y): 4.70
- pIC50 (NIH3T3 [5]; Mus musculus, NIH3T3): 4.00
- pIC50 (NIH3T3 [6]; Mus musculus, NIH3T3): 2.70
- pIC50 (NIH3T3 [7]; Mus musculus, NIH3T3): 3.30
- pIC50 (L5178Y [8]; Mus musculus, L5178Y): 4.60

Structure (SMILES): O=c1[nH]c(=S)n(C2C[C@@H](OP(=O)(O)O)[C@@H](COP(=O)(O)O)O2)cc1F (stereo not given in full)
- k2' [9]: 0.36 min⁻¹
- pKi (Thymidylate synthase [10]): 7.15
- Ki' [11]: 79 nM
- Ki' [12]: 41 nM
- pKi (Thymidylate synthase [13]): 6.85
- Ki'' [14]: 49 nM
- k2'' [15]: 0.06 min⁻¹
- k2'' [16]: 0.02 min⁻¹
- k2' [17]: 0.12 min⁻¹
- Ki'' [18]: 46 nM

Structure (SMILES): O=c1[nH]c(=O)n([C@H]2C[C@H](O)[C@@H](COP(=O)(O)O)O2)cc1F
- k2' [9]: 0.18 min⁻¹
- Ki' [11]: 5.5 nM
- Ki' [19]: 1.8 nM
- k2' [20]: 0.17 min⁻¹
- k2'' [21]: 0.12 min⁻¹
- Ki'' [22]: 20 nM
- Ki'' [14]: 71 nM
- k2'' [23]: 0.17 min⁻¹

Structure (SMILES): O=c1[nH]c(=O)n([C@H]2C[C@H](O)[C@@H](CO)O2)cc1F (stereo in doubt; 22) [FLOXURIDINE]
- pIC50 (L5178Y [1]; l5178y): 5.40
- pIC50 (NIH3T3 [2]; nih3t3): 3.82
- pIC50 (L5178Y [3]; l5178y): 5.70
- pIC50 (L5178Y [4]; l5178y): 5.30
- pIC50 (NIH3T3 [5]; nih3t3): 4.22
- pIC50 (NIH3T3 [6]; nih3t3): 3.60
- pIC50 (NIH3T3 [7]; nih3t3): 4.22
- pIC50 (L5178Y [8]; l5178y): 5.30
